How the values were obtained:
[1] = system: human adrenal gland section expressing aldosterone-producing adenoma; test: In vitro autoradiography using human adrenal adenoma; type: binding; settings: section of FIG. 17(b)
Outline: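 Autoradiography readout: PSL in equal-sized ROIs over adenoma (B2) and normal adrenal cortex (B1), expressed as B2/B1 and decay-corrected using half-life, applied activity and plate contact time. Tissue was surgically excised human adrenal, frozen and cut at 7 μm, incubated 10 min with 5-33 kBq/mL tracer in BSA-containing PBS, then imaged after 16-20 h exposure.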

[2] = In vivo kinetics experiment (radioactivity distribution); set-up: species or system Wistar male rat; settings: rat i.v., mean ± SD
Outline: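 Tissue radioactivity (% ID/g) and adrenal-to-blood, liver, kidney, small intestine, muscle and fat ratios determined at 10, 30 and 60 min post-dose. Tracers (approximately 1 to 3.7 MBq, saline with 1 w/v % ascorbic acid) injected i.v. into caudal vein of anesthetized 9-week male Wistar rats; organs excised, weighed, counted.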

[3] = Plasma stability evaluation (TLC analysis); type: in vitro ADME; settings: 37° C., 60 minutes, TLC analysis
Outline: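 TLC analysis, using each compound's synthesis conditions, judged stability after methanol was added and samples were centrifuged to remove protein. Beforehand, each tracer had spent 60 minutes at 37° C in pooled heparinized normal human plasma.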

## Cn1c(-c2cncc(Cn3ccnc3)c2)nc2ccc([123I])cc21 [[^123I] 607, 2-[5-{(1H-imidazol-1-yl)methyl}pyridin-3-yl]-6-[^123I]iodo-1-methyl-1H-benzo[d]imidazole]
[1]
  B2/B1 accumulation ratio: 0.90
[1]; site 71b
  B2 (PSL value, aldosterone-producing adenoma): 5332
[1]; site 72b
  B1 (PSL value, normal adrenal cortex): 5945
[2]; 10 min after administration
  Adrenal gland/blood ratio of radioactivity accumulation: 64.15 ± 4.03
  Adrenal gland/fat ratio of radioactivity accumulation: 92.36 ± 15.53
  Adrenal gland/kidney ratio of radioactivity accumulation: 5.73 ± 1.00
  Adrenal gland/liver ratio of radioactivity accumulation: 3.85 ± 0.67
  Adrenal gland/muscle ratio of radioactivity accumulation: 64.58 ± 8.21
  Adrenal gland/small intestine ratio of radioactivity accumulation: 3.95 ± 0.40
  Radioactivity distribution Adrenal gland: 11.13 ± 0.88 % ID/g
  Radioactivity distribution Bladder (including urine): 1.20 ± 0.71 % ID/g
  Radioactivity distribution Blood: 0.17 ± 0.02 % ID/g
  Radioactivity distribution Fat: 0.12 ± 0.02 % ID/g
  Radioactivity distribution Femur: 0.86 ± 0.02 % ID/g
  Radioactivity distribution Heart: 0.66 ± 0.03 % ID/g
  Radioactivity distribution Kidney: 1.96 ± 0.19 % ID/g
  Radioactivity distribution Large intestine: 0.12 ± 0.02 % ID/g
  Radioactivity distribution Liver: 2.93 ± 0.40 % ID/g
  Radioactivity distribution Lung: 0.90 ± 0.07 % ID/g
  Radioactivity distribution Muscle (lower limbs): 0.17 ± 0.02 % ID/g
  Radioactivity distribution Remaining whole body: 0.27 ± 0.03 % ID/g
  Radioactivity distribution Small intestine: 2.82 ± 0.12 % ID/g
  Radioactivity distribution Spleen: 4.93 ± 0.56 % ID/g
  Radioactivity distribution Stomach: 0.88 ± 0.20 % ID/g
  Radioactivity distribution Testis: 0.06 ± 0.01 % ID/g
  Radioactivity distribution Whole brain: 0.03 ± 0.00 % ID/g
[2]; 30 min after administration
  Adrenal gland/blood ratio of radioactivity accumulation: 163.89 ± 22.78
  Adrenal gland/fat ratio of radioactivity accumulation: 109.60 ± 14.02
  Adrenal gland/kidney ratio of radioactivity accumulation: 12.63 ± 4.53
  Adrenal gland/liver ratio of radioactivity accumulation: 15.55 ± 2.37
  Adrenal gland/muscle ratio of radioactivity accumulation: 114.11 ± 13.20
  Adrenal gland/small intestine ratio of radioactivity accumulation: 2.89 ± 0.23
  Radioactivity distribution Adrenal gland: 14.61 ± 1.60 % ID/g
  Radioactivity distribution Bladder (including urine): 2.79 ± 0.51 % ID/g
  Radioactivity distribution Blood: 0.09 ± 0.00 % ID/g
  Radioactivity distribution Fat: 0.13 ± 0.01 % ID/g
  Radioactivity distribution Femur: 0.98 ± 0.16 % ID/g
  Radioactivity distribution Heart: 0.54 ± 0.05 % ID/g
  Radioactivity distribution Kidney: 1.24 ± 0.36 % ID/g
  Radioactivity distribution Large intestine: 0.12 ± 0.01 % ID/g
  Radioactivity distribution Liver: 0.94 ± 0.06 % ID/g
  Radioactivity distribution Lung: 0.72 ± 0.05 % ID/g
  Radioactivity distribution Muscle (lower limbs): 0.13 ± 0.00 % ID/g
  Radioactivity distribution Remaining whole body: 0.27 ± 0.03 % ID/g
  Radioactivity distribution Small intestine: 5.06 ± 0.42 % ID/g
  Radioactivity distribution Spleen: 6.69 ± 1.24 % ID/g
  Radioactivity distribution Stomach: 1.17 ± 0.29 % ID/g
  Radioactivity distribution Testis: 0.09 ± 0.02 % ID/g
  Radioactivity distribution Whole brain: 0.02 ± 0.00 % ID/g
[2]; 60 min after administration
  Adrenal gland/blood ratio of radioactivity accumulation: 241.20 ± 39.48
  Adrenal gland/fat ratio of radioactivity accumulation: 194.91 ± 44.02
  Adrenal gland/kidney ratio of radioactivity accumulation: 18.18 ± 3.94
  Adrenal gland/liver ratio of radioactivity accumulation: 27.59 ± 4.15
  Adrenal gland/muscle ratio of radioactivity accumulation: 177.15 ± 43.41
  Adrenal gland/small intestine ratio of radioactivity accumulation: 3.39 ± 0.53
  Radioactivity distribution Adrenal gland: 18.47 ± 2.05 % ID/g
  Radioactivity distribution Bladder (including urine): 2.99 ± 1.26 % ID/g
  Radioactivity distribution Blood: 0.08 ± 0.01 % ID/g
  Radioactivity distribution Fat: 0.10 ± 0.02 % ID/g
  Radioactivity distribution Femur: 1.17 ± 0.10 % ID/g
  Radioactivity distribution Heart: 0.43 ± 0.08 % ID/g
  Radioactivity distribution Kidney: 1.04 ± 0.19 % ID/g
  Radioactivity distribution Large intestine: 0.16 ± 0.03 % ID/g
  Radioactivity distribution Liver: 0.67 ± 0.04 % ID/g
  Radioactivity distribution Lung: 0.65 ± 0.15 % ID/g
  Radioactivity distribution Muscle (lower limbs): 0.11 ± 0.02 % ID/g
  Radioactivity distribution Remaining whole body: 0.26 ± 0.01 % ID/g
  Radioactivity distribution Small intestine: 5.48 ± 0.49 % ID/g
  Radioactivity distribution Spleen: 6.95 ± 0.95 % ID/g
  Radioactivity distribution Stomach: 1.52 ± 0.61 % ID/g
  Radioactivity distribution Testis: 0.11 ± 0.02 % ID/g
  Radioactivity distribution Whole brain: 0.02 ± 0.00 % ID/g
[3]
  Radiochemical purity after incubation in human plasma: 84%

Source: US10358434B2, “2-(3-pyridinyl)-1H-benzimidazole derivative compound and medicament containing same” (NIHON MEDI-PHYSICS CO., LTD., priority 2014, dated 2019)
